Assay results reported in patent publication US20220204510A1, “2,3-DIHYDRO-1H-PYRROLIZINE-7-FORMAMIDE DERIVATIVE AND APPLICATION THEREOF” (CHIA TAI TIANQING PHARMACEUTICAL GROUP CO., LTD., priority 2018, published 2022).
Like-named read-outs stand apart in the source and are kept apart here.

Experiments:
[1] = Metabolic stability in liver microsomes; format: in vitro ADME; details: for half-life at 1 μM: 1 μM compound, 0.5 mg/mL; for microsomal CLint at 1 μM: read-out: CLint(mic)
Experimental: Experimental objective: to evaluate the metabolic stability of test compounds 18 and 25 in liver microsomes of rats, beagle dogs and cynomolgus monkeys
Experimental procedures: first, the test compound (10 mM) was subjected to a two-step dilution, where the compound was diluted to an intermediate concentration of 100 μM with 100% methanol, and the working solution was diluted to 10 μM with a potassium phosphate buffer; eight 96-well incubation plates were prepared, and named T0, T5, T10, T20, T30, T60, Blank and NCF60, respectively; the reaction time points corresponding to the first 6 incubation plates were 0, 5, 10, 20, 30 and 60 min, respectively; for the Blank plate, neither the test compound nor a control compound was added, and for the NCF60 plate, potassium phosphate buffer was used in an incubation of 60 min in place of a NADPH regeneration system solution; 10 μL of the test compound working solution and 80 μL of the microsome working solution (liver microsome protein concentration was 0.625 mg/mL) were added to the T0, T5, T10, T20, T30, T60 and NCF60 plates, while only the microsome working solution was added to the Blank plate, and all the incubation plates were then placed in a 37° C. water bath for pre-incubation for about 10 min; after the pre-incubation, 10 μL of a NADPH regeneration system working solution was added into each sample well of all the plates except the NCF60 plate and T0 plate to start the reaction, and 10 μL of potassium phosphate buffer was added to each well of the NCF60 plate; therefore, in the test compound or control compound samples, the final reaction concentrations of the compound, testosterone, diclofenac and propafenone were 1 μM, the concentration of the liver microsomes was 0.5 mg/mL, and the final concentrations of DMSO and acetonitrile in the reaction system were 0.01% (v/v) and 0.99% (v/v), respectively; after incubation for an appropriate time (such as 5, 10, 20, 30, and 60 min), 300 μL of a stop solution (acetonitrile solution containing 100 ng/mL tolbutamide and 100 ng/mL labetalol) was added to each sample well to stop the reaction; 300 μL of the stop solution and then 10 μL of the NADPH working solution were added to the T0 plate, all the sample plates were shaken and centrifuged in a centrifuge (3220×g) for 20 min, and then 100 μL of supernatant was taken from each well and diluted with 300 μL of pure water for liquid chromatography-tandem mass spectrometry analysis.

[2] = Pharmacokinetic study in Balb/c mice by oral administration and intravenous injection; format: in vivo; details: mouse, plasma, Balb/c female mice; for bioavailability / AUC / Cmax / Tmax: 3 mg/kg; for bioavailability: PO (3 mpk) vs IV (1 mg/kg), read-out: Bioavailability F; for AUC / Cmax / Tmax: PO (3 mpk); for AUC: read-out: Area under the plasma concentration-time curve AUC; for Cmax: read-out: Peak concentration Cmax; for Tmax: read-out: Peak time Tmax; for Vd / AUC(0-t) / clearance / half-life: IV (1 mg/kg); for Vd: read-out: Apparent volume of distribution Vdss; for AUC(0-t): read-out: Area under the plasma concentration-time curve AUC0-24 h; for clearance: read-out: Clearance CL; for half-life: read-out: Half-life T1/2 (converted)
Experimental: Pharmacokinetic study of the test compound in Balb/c mice by oral administration and intravenous injection: The test compound was mixed with a solution containing dimethyl sulfoxide (10%), polyethylene glycol 400 (60%) and water (30%), and the mixture was vortexed and sonicated to prepare a 0.2 mg/mL clear solution, which was filtered through a millipore filter for later use. Balb/c female mice aged 7 to 10 weeks were intravenously injected with the candidate compound solution at a dose of 1 mg/kg. The test compound was mixed with an aqueous solution containing 10% polyoxyethylene stearate, and the mixture was vortexed and sonicated to prepare a 0.3 mg/mL clear solution for later use. Balb/c female mice aged 7 to 10 weeks were orally administered with the candidate compound solution at a dose of 3 mg/kg. Whole-blood was collected and plasma was prepared. Drug concentration was analyzed by LC-MS/MS and pharmacokinetic parameters were calculated with Phoenix WinNonlin software.

HBV = test: qPCR test in the HBV in vitro test (HBV DNA in HepG2.2.15 cells); format: cell-based; details: Hepatitis B virus, 192 h, HBV DNA in HepG2.2.15 culture medium, day 8, read-out: Half maximal inhibitory concentration (EC50) of HBV
Experimental: To evaluate the inhibitory effect of the compound on HBV by detecting content of HBV DNA in HepG2.2.15 cells in a real-time qPCR test, with EC50 of the compound as an indicator.
3.1. HepG2.2.15 cells (4×10^4 cells/well) were inoculated into a 96-well plate and cultured at 37° C. in 5% CO2 overnight. 3.2. On day 2, the compound was 3-fold diluted in gradient for a total of 8 dilution gradients. The compound at different concentrations was added into the culture wells in duplicate. The final concentration of DMSO in the culture medium was 1%. 1 μM GLS4 was used as a 100% inhibition control (the structure of GLS4 disclosed in WO2008154817A1 is as follows:
1% DMSO was used as a 0% inhibition control. 3.3. On day 5, the culture medium was replaced with a fresh culture medium containing the compound. 3.4. On day 8, the culture medium in the culture wells was collected, and the high-throughput DNA purification kit (Qiagen-51162) was used to extract DNA. For specific steps, refer to the product manual.
3.6. Each well of the 96-well PCR plate was added with 15 μL of the reaction mixture, and then with 10 μL of sample DNA or HBV DNA standard. 3.7. The reaction conditions for PCR: heating at 95° C. for 10 min, degeneration at 95° C. for 15 s, and extension at 60° C. for 1 min, with a total of 40 cycles.
3.8.1. Calculation of the inhibition percentage: % Inh.=[1−(DNA copy number in the sample−DNA copy number in 1 μM GLS4)/(DNA copy number in the DMSO control−DNA copy number in 1 μM GLS4)]×100. 3.8.2. Calculation of EC50: half maximal inhibitory concentration (EC50) of the compound for HBV was calculated using GraphPad Prism software. 3.8.3.

[3] = Sprague-Dawley (SD), rat, SD rats liver microsomes
[4] = cynomolgus monkey, Cynomolgus monkeys liver microsomes
[5] = dog, Beagle dogs liver microsomes

| Structure (SMILES) | CLint scaled at 1 μM [1, 3] [mL/min/kg] | half-life at 1 μM [1, 3] [h] | microsomal CLint at 1 μM [1, 3] [µL/min/mg] | CLint scaled at 1 μM [1, 4] [mL/min/kg] | half-life at 1 μM [1, 4] [h] | microsomal CLint at 1 μM [1, 4] [µL/min/mg] | CLint scaled at 1 μM [1, 5] [mL/min/kg] | half-life at 1 μM [1, 5] [h] | microsomal CLint at 1 μM [1, 5] [µL/min/mg] | bioavailability [2] [%] | AUC [2] [µM·h] | Cmax [2] [nM] | Tmax [2] [h] | Vd [2] [L/kg] | AUC(0-t) [2] [µM·h] | clearance [2] [mL/min/kg] | half-life [2] [h] | EC50 (HBV) [nM] |
| --- | --- | --- | --- | --- | --- | --- | --- | --- | --- | --- | --- | --- | --- | --- | --- | --- | --- | --- |
| C[C@]1(NC(=O)C(=O)c2c(Cl)c(C(=O)Nc3ccc(F)c(F)c3)c3n2CCC3)CC[C@H](CC(=O)O)CC1 [Compound 18] | < 17.3 | > 2.42 | < 9.6 | < 13 | > 2.42 | < 9.6 | < 13.8 | > 2.42 | < 9.6 | 271 | 5.02 | 1460 | 0.5 | 8.8 | 0.617 | 50.1 | 2.8 | 11 |
| C[C@]1(NC(=O)C(=O)c2c(Cl)c(C(=O)Nc3cc(F)c(F)c(F)c3)c3n2CCC3)CC[C@H](CC(=O)O)CC1 [Compound 25] | < 17.3 | > 2.42 | < 9.6 | < 13 | > 2.42 | < 9.6 | < 13.8 | > 2.42 | < 9.6 | 51 | 2.27 | 1480 | 0.5 | 3.1 | 1.49 | 20 | 1.95 | 4 |
